Laboratory results as given in US5064853A, “4(2-indolyl)2-amino-pentanedioic acids and cholecyostokinin use thereof” (Roussel Uclaf, priority 1989, dated 1991).

Tests used:
[1] = molecular target: T1, Central CCK receptors (Rattus norvegicus, UniProt P30553); experiment: Central receptors: 3H CCK8 binding to rat cortex homogenate; details: 0.5 nM 3H CCK8, 25° C., 30 minutes, read-out: Central CCK IC50: concentration necessary to inhibit the fixed specific radioactivity by 50%
T1 construct: The cortices of 20 male rats weighing 150 to 200 g were removed and were ground up with a Polytron; from tissue; host or cells: rat cerebral cortex membrane homogenate
T1 sequence (P30553 1-452): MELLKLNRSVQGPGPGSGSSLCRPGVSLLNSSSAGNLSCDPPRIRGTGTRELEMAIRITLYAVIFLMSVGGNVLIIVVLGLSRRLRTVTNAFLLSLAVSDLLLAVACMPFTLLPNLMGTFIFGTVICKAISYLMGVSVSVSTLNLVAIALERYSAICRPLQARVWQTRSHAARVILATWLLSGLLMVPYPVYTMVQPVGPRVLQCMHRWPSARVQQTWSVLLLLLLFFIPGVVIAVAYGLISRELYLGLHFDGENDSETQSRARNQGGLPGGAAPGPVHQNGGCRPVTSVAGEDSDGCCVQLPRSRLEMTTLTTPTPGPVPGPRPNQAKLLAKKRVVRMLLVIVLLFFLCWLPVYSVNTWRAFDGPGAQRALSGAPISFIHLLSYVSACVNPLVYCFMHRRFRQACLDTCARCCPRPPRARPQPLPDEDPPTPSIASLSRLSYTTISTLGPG
Description: The cortices of 20 male rats weighing 150 to 200 g were removed and were ground up with a Polytron in 0.32M sucrose. After centrifuging, the supernatant was collected and centrifuged. The residue was suspended in 120 ml of Hepes buffer, pH 7.4, (Hepes 10 mM, NaCl 130 mM, MgCl2, 6H2 O 5 mM, bacitracine 250 mg/liter, PMSF 1 mg/liter), and re-centrifuged. The residue was taken up in 120 ml of Hepes buffer pH 7.4, and recentrifuged at 30,000 g for 30 minutes. The residue was then taken up in 500 ml of Hepes buffer pH 7.4, which enabled 240 aliquots of 2 ml of homogenate to be obtained. The incubation was carried out at 25° C. for 30 minutes in the presence of 0.5 nM of 3H CCK8 and the product to be tested (10,000 micromoles for 1 dose, or with a range of 7 doses) or cold CCK8 (10^-6 M), which was the reference product. After the homogenate aliquots were returned to 0° C., they were filtered with Whatman GF/B filters and the filtrates were washed with 3×5 ml of a Tris HCl 50 mM buffer, pH 7.4. The results are expressed in IC50 : concentration necessary to inhibit the fixed specific radioactivity by 50% in the Table below.

[2] = molecular target: T2, Peripheral CCK receptors (Rattus norvegicus, UniProt P30551); experiment: Peripheral receptors: 3H CCK8 binding to rat pancreas homogenate; details: 3H CCK8, 25° C., 60 minutes, read-out: Peripheral CCK IC50: concentration necessary to inhibit the fixed specific radioactivity by 50%
T2 construct: The pancreases of 3 male rats weighing 150-200 g were removed and ground with a Polytron; from tissue; host or cells: rat pancreas membrane homogenate
T2 sequence (P30551 1-444): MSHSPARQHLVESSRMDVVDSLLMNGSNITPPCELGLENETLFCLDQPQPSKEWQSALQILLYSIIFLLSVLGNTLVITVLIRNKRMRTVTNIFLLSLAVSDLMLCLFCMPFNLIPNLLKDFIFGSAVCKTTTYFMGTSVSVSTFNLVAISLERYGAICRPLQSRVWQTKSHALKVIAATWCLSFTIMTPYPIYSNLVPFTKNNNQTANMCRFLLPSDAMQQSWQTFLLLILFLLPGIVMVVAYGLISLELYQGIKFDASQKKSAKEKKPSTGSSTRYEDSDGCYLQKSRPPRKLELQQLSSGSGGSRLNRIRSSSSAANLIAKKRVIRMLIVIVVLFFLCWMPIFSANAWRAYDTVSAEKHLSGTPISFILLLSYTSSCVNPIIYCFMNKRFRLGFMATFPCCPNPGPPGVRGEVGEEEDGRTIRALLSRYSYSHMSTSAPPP
Description: The pancreases of 3 male rats weighing 150-200 g were removed and ground with a Polytron (4 grindings, speed 3, with an interval of 10 seconds between grindings) and the homogenate was filtered over a gauze, then centrifuged at 30,000 g for 30 minutes. The residue obtained was taken up in 400 volumes (.perspectiveto.600 ml) of Tris 50 mM HCl buffer, pH 7.4, containing 2 g/liter of BSA, 0.1 mM of bacitracin, 5 mM of MgCl2 and 5 mM of dithiothreitol. 2 ml of homogenate aliquots were incubated at 25° C. for 60 minutes in the presence of […] 3H CCK8 and the product to be tested (10,000 micromoles for 1 dose or with a range of 7 doses) and cold CCK8 (10^-6 M) which was the reference product. After returning to 0° C., the aliquots were filtered with Whatman GF/B filters having been previously washed in a 0.05% solution of polyethyleneimine. The filtrate was washed with 3×5 ml of Tris HCl 50 mM buffer, pH 7.4. The results are expressed in IC50 : concentration necessary to inhibit the fixed specific radioactivity by 50%. (IC50 in nanomoles).

[3] = test system: alimentary intake of a rat; experiment: Action on the alimentary intake of a rat; assay type: in vivo; details: 10 mg/kg intra-peritoneally, consumption monitored every hour for 5 hours
Description: The tests were carried out on groups of 5 rats weighing 250±10 g under the following conditions: the animals were placed individually in cages having a feeding trough described by FREGLY (J. Appln. Physiol., 1960, Vol. 15, p. 539) which had the advantage of avoiding the wastage of food presented when using powdered fodder. The rats were accustomed to taking their daily ration over 5 consecutive hours, drinking water being offered ad libitum. The amounts of food ingested were determined individually by weighing the feeding troughs and the consumptions were monitored every hour for 5 hours after the administration of 10 mg/kg of the compound intra-peritoneally. The amounts consumed were expressed in g/100 g of body weight per hour and the averages were compared with those obtained from the control animals by a DUNNET test.

For `COc1ccccc1C(NC(=O)[C@H](CCC(=O)O)NC(=O)c1cc2ccccc2[nH]1)c1ccccc1` (stereo partly drawn) [Example 9, (4S)-4-[[(1H-indol-2-yl)-carbonyl]-amino]-5-[[(2-methoxyphenyl)-benzyl]-amino]-5-oxo pentanoic acid], the IC50 [1] was 682 nM, the IC50 [2] was 32 nM and the “reduction of alimentary consumption relative to control animals” value [3] was “more than 50%”.

Molecule `O=C(O)CC[C@H](NC(=O)c1cc2ccccc2[nH]1)C(=O)NC1c2ccccc2CCc2ccccc21` [Example 13, (S)-5-[(10,11-dihydro-dibenzo-[a,d]-cyclohepten-5-yl)-amino]-4-[[(1H-indol-2-yl)-carbonyl]-amino]-5-oxo pentanoic acid] has an IC50 [1] of 2660 nM and an IC50 [2] of 1660 nM.

In the case of `O=C(O)CC[C@H](NC(=O)c1cc2ccccc2[nH]1)C(=O)NC(c1ccc(Cl)cc1)c1ccc(Cl)cc1` [Example 4, (S)-5-[[bis-(4-chlorophenyl)-methyl]-amino]-5-oxo-4-[[(1H-indol-2-yl)-carbonyl]-amino]-pentanoic acid], the IC50 [1] is reported as 10000 nM and the IC50 [2] is reported as 96 nM.

With `Cc1ccc(C(NC(=O)[C@H](CCC(=O)O)NC(=O)c2cc3ccccc3[nH]2)c2ccc(C)cc2)cc1` [Example 2, (S)-4-[[(1H-indol-2-yl)-carbonyl]-amino]-5-[[bis-(4-methylphenyl)-methyl]-amino]-5-oxo pentanoic acid] the IC50 [1] was 700 nM, the IC50 [2] was 53 nM and the “reduction of alimentary consumption relative to control animals” value [3] was 15%.
